Results on one molecule are retold here after paper PMC11831592, “Repurposing Linezolid in Conjunction with Histone Deacetylase Inhibitor Access in the Realm of Glioblastoma Therapies” (Journal of Medicinal Chemistry, 2025).

SMILES strings stand for the structures.

One series has as its system U87MG. Kind of series: CCK8 cell proliferation assay, U87MG. The series is classed as cell-based. The conditions noted are these: Homo sapiens, U-87 MG, CCK8, 72 h. As to the method:
(§1) Cell viability and drug cytotoxicity were determined by a CCK-8 kit (Cell Counting Kit-8, CK04-13, MD, USA) (CCK8, C0005, Target Molecule Corp., MA, USA) reagent. Cells were seeded 2 × 10^3 per well in the 96-well plate for 24 h, followed by treating at different concentrations of compounds for 72 h. Before the experiment, CCK8 was 10-fold diluted with the culture medium and then incubated with cells for 30 min. Finally, the OD was 450 nm absorbance and calculated for cell viability.

The nature of series [1]: Pharmacokinetic study in Sprague-Dawley rats. The series is classed as in vivo. To be noted: male, plasma, rat, 10 mg/kg intravenous. As to the method: The pharmacokinetic study protocol of compound 1 was approved by the IACUC of TMU (LAC-2022-0452), in compliance with National Research Council’s Guide for the Care and Use of Laboratory Animal. 8 Week-old male Sprague–Dawley rats were provided by BioLASCO (Taipei, Taiwan). Each rat (n = 3) was intravenously administered with a single dosage of 10 mg/kg A089 through the jugular vein. Blood samples were collected from the jugular vein at predetermined time points: 0.03, 0.08, 0.25, 0.5, 1, 2, 4, 6, 8, 12, and 24 h postadministration. The blood samples were centrifuged at 4 °C to obtain the plasma samples. For protein precipitation, an aliquot of acetonitrile was added to the plasma, followed by centrifugation and filtration using a 0.22 μm filter. The filtrate was then analyzed by ultraperformance liquid chromatography–tandem mass spectrometry (UPLC–MS/MS, TQ-XS, Waters Corp., Manchester, UK). Pharmacokinetic parameters were calculated by using a noncompartmental analysis with Phoenix WinNonlin software (Certara, Princeton, NJ, USA).

For another series, the system named is LN229 GBM cells. In words: CCK8 cell proliferation assay, LN229. The series is classed as cell-based. The conditions noted are these: Homo sapiens, LN-229; LN229, CCK8, 72 h. The protocol:
as §1

The subject of another series is PT#3-R GBM cells. Kind of series: Orthotopic PT#3-R transplant model, survival and HE staining. The series is classed as in vivo, mouse. As to the method:
For orthotopic inoculation, CT-2A cells (1 × 10^5) or CT-2A-R (2 × 10^5) were suspended in 4 μL of DMEM and implanted into the brain of B6 mice. PT#3-R cells (5 × 10^5) were suspended in 4 μL of DMEM and implanted into the brain of SCID mice. After cell implantation, mice were monitored daily for survival, and their body weight was measured every 3 days starting from the seventh day. […] […] […] Upon the natural death of the mice, brains were extracted and entrusted to BioTools for sectioning and HE staining.

Series [2] has as its system TMZ-resistant GBM cell lines A172R and PT#3R. Kind of series: MTT cytotoxicity assay, TMZ-resistant GBM lines (statement in words). To be noted: 0 to 80 μM, 72 h. The series is classed as cell-based. The protocol: We utilized linezolid as the structural foundation to confirm the cytotoxicity of linezolid-conjugated functional domains against glioblastoma (GBM). We combined it with the binding structures of anti-histone deacetylases (HDACs) (denoted as compounds 1–5 and 11–14), antitubulin (compound 6), anticyclooxygenase (COX) (compound 7), and anti-heat shock protein 90 (Hsp90) (compounds 8–10). These constructs were then administered to TMZ-resistant GBM cell lines A172R and PT#3R at concentrations ranging from 0 to 80 μM over 72 h. The cytotoxic effects of these compounds were assessed using the MTT assay (Table 1 and Supporting Information IV). […] Given the remarkable cytotoxicity of compound 1 on both A172-R and PT#3-R TMZ-resistant cells, this study subsequently focused on compound 1 for further in-depth investigation and mechanistic exploration. To validate that the cytotoxic effect of compound 1 on GBM is not attributed to linezolid alone, we separately treated the TMZ-resistant GBM cell line PT#3-R with compound 1 and linezolid. […] This confirms that the cytotoxicity of compound 1 against GBM is primarily attributable to the inhibitory structure of linezolid-conjugated HDAC (Figure 2A). Furthermore, we compared the cytotoxic effects of compound 1 on various wild-type brain tumor cell lines, including U87MG, PT#3, LN229 GBM cells, and CT-2A mouse astrocyte cell line as well as TMZ-resistant variants cell lines, including U87MG-R, PT#3-R, CT-2A-R, and T98G (MGMT-positive). […] Additionally, we further confirmed the efficacy of compound 1 in GBM treatment.
MTT assay was employed to evaluate the cytotoxicity of the synthesized compound against resistant GBM cells. The MTT (3-(4,5-dimethylthiazol-2-yl)-2,5-diphenyltetrazolium bromide, catalog no. AM0818-0005) powder was purchased from BIONOVAS (Ontario, Canada). The MTT was prepared at 10 mg/mL stock with ultrapure water and then stored at −20 °C. […] Finally, 100 μL of the mixture was transferred to measure the OD 595 nm absorbance.

For another series, the system named is CT-2A-R. In words: CCK8 cell proliferation assay, CT-2A-R. The series is classed as cell-based. To be noted: Mus musculus, CCK8, 72 h. As to the method: as §1
Another series addresses T1, HDAC1 (Homo sapiens, UniProt Q13547).
T1 construct: purchased Reaction Biology Corporation, Malvern, PA (contract assay service)
Kind of series: HDAC enzyme inhibition assay, HDAC1. The conditions noted are these: 10-dose, 3-fold serial dilution starting at 10 μM. The series is classed as biochemical. As to the method:
Enzyme inhibition assays were performed by the Reaction Biology Corporation, Malvern, PA (http://www.reactionbiology.com).

T1 sequence (Q13547 whole entry): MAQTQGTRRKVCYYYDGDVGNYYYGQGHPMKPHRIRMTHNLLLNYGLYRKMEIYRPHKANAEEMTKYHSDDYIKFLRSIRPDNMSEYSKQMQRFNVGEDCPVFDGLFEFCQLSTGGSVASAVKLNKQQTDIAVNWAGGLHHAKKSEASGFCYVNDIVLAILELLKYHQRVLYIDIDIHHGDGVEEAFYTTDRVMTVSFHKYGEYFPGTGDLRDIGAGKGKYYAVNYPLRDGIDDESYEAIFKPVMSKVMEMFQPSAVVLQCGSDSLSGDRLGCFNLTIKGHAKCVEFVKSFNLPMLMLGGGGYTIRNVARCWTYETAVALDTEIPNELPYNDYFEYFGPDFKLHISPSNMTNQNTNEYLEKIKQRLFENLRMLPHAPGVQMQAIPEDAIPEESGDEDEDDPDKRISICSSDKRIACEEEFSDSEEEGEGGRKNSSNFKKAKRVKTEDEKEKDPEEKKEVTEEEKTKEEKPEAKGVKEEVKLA

On to `O=C(/C=C/c1ccc(CNC[C@H]2CN(c3ccc(N4CCOCC4)c(F)c3)C(=O)O2)cc1)NO` [compound 1, (S,E)-3-(4-((((3-(3-Fluoro-4-morpholinophenyl)-2-oxooxazolidin-5-yl)methyl)ami-no)methyl)phenyl)-N-hydroxyacrylamide], for which it took 13.5 ± 0.54 µM to reach half-maximal inhibition in the series with U87MG (IC50). In series [1], the AUC(0-inf) at 24 h came out at 2280 ± 760 ng·h/mL, the AUC(0-t) at 24 h stood at 2010 ± 530 ng·h/mL, the C0 at 24 h amounted to 12300 ± 8130 ng/mL and the MRT inf at 24 h amounted to 7.91 ± 3.11 h. Moreover, in series [1], the Vd at 24 h was 76.2 ± 12.3 L/kg, the clearance at 24 h was 78 mL/min/kg and the half-life at 24 h was 12 ± 4.42 h. Besides, in the series on LN229 GBM cells, the IC50 worked out at 15.7 ± 0.93 µM. For the same molecule, the “survival (Kaplan-Meier)” value with PT#3-R GBM cells (PT#3-R in SCID mice, 10 or 20 mg/kg with 10 mg/kg TMZ, intraperitoneal every 3 days from day 7) is recorded as “extend the survival rate”. Also, the “TMZ-resistant GBM cell growth in the brain (HE staining)” value in the series with PT#3-R GBM cells (PT#3-R, post-mortem brain tissue sections) is reported as “effective inhibition of TMZ-resistant GBM cell growth in the brain”. For the same molecule, the “cytotoxicity in TMZ-resistant GBM” value in series [2] was “exhibited the capacity to induce cytotoxicity”. Moreover, the IC50 in the series on CT-2A-R came out at 8.27 ± 1.39 µM. This molecule also registered an IC50 against HDAC1 of 1.09 µM.
